Results from US20040229816A1, “Anti-angiogenic and anti-tumoral properties of beta and gamma secretase inhibitors” (priority 2003, published 2004).
“Also recorded” adds a separate entry of the source. Peptide text beside a SMILES is read from it. * marks the point of attachment. Cbz = O=C(OCc1ccccc1)*

Assays:
explants of rat aortae = test: rat aortic ring model of angiogenesis (microvessel outgrowths); assay type: cell-based, Sprague Dawley rats; details: for sprouting of microvessel outgrowths, overall / dose dependence: day 4, 5 and 6
Description: Twenty four well tissue culture grade plates (Nalgene International, NY) were covered with […] of Matrigel (Becton-Dickinson, Bedford, Mass.) and allowed to gel for 30 min at 37° C., 5% CO2. Briefly, thoracic aortae were excised from 9 month-old Sprague Dawley rats. After removing the fibroadipose tissue, arteries were sectioned into 1 mm long cross sections, rinsed 5 times with EBM (Clonetics Corp.) containing 4% fetal bovine serum (FBS) and placed on the Matrigel coated wells. Artery rings were covered with an additional […] of Matrigel. After polymerization the Matrigel was covered with 1 mL of EBM (4% FBS) containing various doses of Z-VVL-CHO, OM99-2, P10-P4′statV, DAPT, or L-685,458 as indicated in the figure legends (the culture medium was changed every 3 days). Pictures were taken at day 4, 5 and 6 using a 4×objective. Microvessel outgrowth area was quantified using the Image Pro Plus software. Briefly, ring cultures were photographed using a digital video camera linked to an Olympus BX60 microscope. The outgrowth area was delineated and measured with the Image Pro Plus software by using a strategy of microvessel outgrowth detection based on difference in color intensities between the outgrowths, the Matrigel and the artery ring. The artery rings were manually selected and excluded from the area of measurement and the color intensity threshold was adjusted to selectively measure the area occupied by the microvessel outgrowths. Results were expressed as a percentage of the area occupied by microvessel outgrowths at day 4 in control condition.

[1] = tested on: U-87 MG brain tumor cells; test: proliferation of U-87 MG brain tumor cells; assay type: cell-based, human
[2] = tested on: human lung adenocarcinoma (A-549) xenografts; test: human lung adenocarcinoma A-549 xenografts in nude mice; assay type: in vivo; details: Z-VLL-CHO 5 mg/Kg; for vascularization (vascular index) of A-549 tumors versus vehicle: DAPT 10 mg/Kg intraperitoneally, CD31/PECAM-1 immunostaining; for growth (tumor volume) of A-549 xenografts versus vehicle: intraperitoneally everyday for 12 days, DAPT 10 mg/Kg
Description: FIG. 9a: Anti-tumoral effect of the γ-secretase inhibitor DAPT and of the β-secretase inhibitor Z-VLL-CHO on human lung adenocarcinoma (A-549) xenografts growth rates. A-549 cells (8.5×10^6) were injected subcutaneously into both flanks of 8-10 weeks-old nude mice. Mice were injected intraperitoneally with either the vehicle, 5 mg/Kg of body weight of the β-secretase inhibitor Z-VLL-CHO or 10 mg/Kg of body weight of the γ-secretase inhibitor DAPT, starting when tumors had reached a mean tumor volume of approximately 200 mm^3 (day 21 post implantation). Injections were given everyday for 12 days. […] FIG. 9b: Representative pictures of sections of lung adenocarcinoma tumors immunostained with CD31 antibodies. FIG. 9c: Histogram depicting the quantification of the vascularization of lung adenocarcinoma tumors.
FIG. 10: Anti-tumoral effect of the γ-secretase inhibitor JLK-6 on human lung adenocarcinoma (A-549) xenografts growth rates. A-549 cells (8.5×10^6) were injected subcutaneously into both flanks of 8-10 weeks-old nude mice. Mice were injected intraperitoneally everyday from Day 16 (when the tumors reached a volume of approximately 150 mm^3) with either the vehicle or 5 mg/Kg of body weight of the γ-secretase inhibitor JLK-6.
(§1) The human glioblastoma U-87 MG and human lung adenocarcinoma A-549 cell lines were obtained from American Tissue Culture Type Collection (Manassas, Va.) and were grown in DMEM containing 1×penicilline-streptomycine-fungizone and 10% fetal bovine serum at 37° C. in a humidified atmosphere of 5% CO2. Tumor cells (6×106) in 100 μl of PBS were inoculated subcutaneously into both flanks of 8-10-week-old female nude mice (Harland). Tumor volume (in mm^3) was determined using the formula (length×width^2)/2, where length was the longest axis and width the measurement at right angles to the length (Clarke et al. 2000). When the tumor volumes reached approximately 150 mm^3, animals were treated intraperitoneally everyday with 100 μl of 50% DMSO/H2O (vehicle group), 5 mg/Kg of body weight of Z-VLL-CHO (β-secretase inhibitor), 5 mg/Kg of JLK-6 (γ-secretase inhibitor) or with 10 mg/Kg of body weight of DAPT. Data were expressed as mean tumor volume±S.E for each treatment group.
At the completion of the study, animals were humanely euthanized and tumors were harvested and fixed in paraformaldehyde 4% overnight at 4° C. After paraffin embedding in an automated tissue processing Sakura Tissue-Tek (E150) (Torrence, Calif.), samples were cut into 5 μm sections, deparafinized, and rehydrated through a graded series of alcohol. Sections were treated with 0.02 mg/ml Proteinase K (Gentra Systems, MN) for 15 minutes at 37° C. to allow for proper antigen retrieval, washed several times in PBS and incubated for 15 minutes in a 0.3% solution of hydrogen peroxide. Sections were blocked and then immunostained with a 1:40 dilution of a PECAM-1 antibody (BD-Pharmingen, CA) overnight at 4° C. in a humidification chamber. Vector ABC Kits (Vector Laboratories Inc, CA) where used following the manufacturer's instruction for the immunostaining. Quantification of tumor vascularization was performed using the stereological dissector method. Briefly, forty consecutive sections were taken from a randomly chosen starting point in each tumor. Five sections for each tumor were selected for stereology by taking one section every eight sections. A dissector counting frame was used with inclusion and exclusion lines throughout the reference area. Vessel count was performed at ×400 magnification with the use of an Olympus microscope connected to a digital video camera. Microvessels were counted in the dissector frame by an experimenter unaware of the different treatment conditions. For each tumor an average vessel count per area of dissector frame was determined. A vascular index was calculated by expressing the vessel count as a percentage of the vessel count in the vehicle treatment condition.

[3] = tested on: human glioblastoma (U-87 MG) xenografts; test: human glioblastoma U-87 MG xenografts in nude mice; assay type: in vivo; details: Z-VLL-CHO 5 mg/Kg; for vascularization (vascular index) of U-87 MG tumors versus vehicle: DAPT 10 mg/Kg intraperitoneally, CD31/PECAM-1 immunostaining; for growth (tumor volume) of U-87 MG xenografts versus vehicle: intraperitoneally everyday for 9 days, DAPT 10 mg/Kg
Description: FIG. 8a: Anti-tumoral effect of the γ-secretase inhibitor DAPT and of the β-secretase inhibitor Z-VLL-CHO on human glioblastoma (U-87 MG) xenografts growth rates. U-87 MG cells (6×10^6) were injected subcutaneously into both flanks of 8-10 weeks-old nude mice. Mice were injected intraperitoneally with either the vehicle, 5 mg/Kg of body weight of the β-secretase inhibitor Z-VLL-CHO or 10 mg/Kg of body weight of the γ-secretase inhibitor DAPT, starting when tumors had reached a mean tumor volume of approximately 140 mm^3 (day 8 post implantation). Injections were given everyday for 9 days. […] FIG. 8b: Representative pictures of sections of glioblastoma tumors immunostained with CD31 antibodies. FIG. 8c: Histogram depicting the estimation of glioblastoma tumor vascularization.
as §1
At the completion of the study, animals were humanely euthanized and tumors were harvested and fixed in paraformaldehyde 4% overnight at 4° C. After paraffin embedding in an automated tissue processing Sakura Tissue-Tek (E150) (Torrence, Calif.), samples were cut into 5 μm sections, deparafinized, and rehydrated through a graded series of alcohol. Sections were treated with 0.02 mg/ml Proteinase K (Gentra Systems, MN) for 15 minutes at 37° C. to allow for proper antigen retrieval, washed several times in PBS and incubated for 15 minutes in a 0.3% solution of hydrogen peroxide. […] Quantification of tumor vascularization was performed using the stereological dissector method. […] Microvessels were counted in the dissector frame by an experimenter unaware of the different treatment conditions. For each tumor an average vessel count per area of dissector frame was determined. A vascular index was calculated by expressing the vessel count as a percentage of the vessel count in the vehicle treatment condition.

[4] = tested on: human brain endothelial cells; test: viability of human brain endothelial cells (LDH activity in culture medium); assay type: cell-based; details: 24 hours; for cellular toxicity / viability of human brain endothelial cells versus control: doses employed; for LDH activity in the culture medium, ANOVA main effect: various doses
Description: Primary cultures of human brain endothelial cells were plated at a density of 10^4 cells/[…] of EBM 4% in 96 wells culture plates and treated with various doses of γ-secretase and β-secretase inhibitors as indicated in the figure legends. Following 24 hours in culture, the EBM covering the cells was removed and assayed for Lacticodehydrogenase (LDH) activity using the cytotoxicity detection kit (Roche Diagnostic Corporation, Ind.). Cells were covered with […] of EBM 4% and cellular proliferation measured using the Quick cell proliferation assay kit (Biovision Research Products, Calif.).

SMILES | area covered by microvessel outgrowths versus control (explants of rat aortae; 5 μM) | area covered by microvessel outgrowths versus control (explants of rat aortae; 10 μM) | area covered by microvessel outgrowths versus control (explants of rat aortae; 20 μM) | proliferation of U-87 MG brain tumor cells [1] | tumoricidal activity [1] | vascularization (vascular index) of A-549 tumors versus vehicle [2] | growth (tumor volume) of A-549 xenografts versus vehicle [2] | vascularization (vascular index) of U-87 MG tumors versus vehicle [3] | growth (tumor volume) of U-87 MG xenografts versus vehicle [3] | cellular toxicity / viability of human brain endothelial cells versus control [4] | LDH activity in the culture medium, ANOVA main effect [4] | sprouting of microvessel outgrowths, overall / dose dependence (explants of rat aortae) | sprouting of microvessel outgrowths, overall / dose dependence (explants of rat aortae; listed as Z-VVL-CHO)
C[C@H](NC(=O)Cc1cc(F)cc(F)c1)C(=O)N[C@H](C(=O)OC(C)(C)C)c1ccccc1 [DAPT, N-[N-(3,5-difluorophenacetyl-L-alanyl)]-S-phenylglycine t-butyl ester] | appeared to stimulate | no significant difference | inhibit | dose dependently inhibited the proliferation | did not display tumoricidal activity | appeared to be decreased; also recorded: significantly reduce the vascularization | potently suppressed the growth; also recorded: significantly inhibit the growth | decreased vascularization; also recorded: significantly reduce the vascularization | completely inhibited the growth; also recorded: inhibit the growth | without inducing cellular toxicity | significant main effect |  | 
CC(C)C[C@@H](C=O)NC(=O)[C@H](CC(C)C)NC(=O)[C@@H](NC(=O)OCc1ccccc1)C(C)C [Z-VLL-CHO, N-benzyloxycarbony-val-leu-leucinal] (Cbz-Val-Leu-Leu-aldehyde) |  |  |  | dose dependently inhibited the proliferation | did not display tumoricidal activity | appeared to be decreased; also recorded: significantly reduce the vascularization | potently suppressed the growth; also recorded: significantly inhibit the growth | decreased vascularization; also recorded: significantly reduce the vascularization | completely inhibited the growth; also recorded: inhibit the growth | without affecting their viability | significant main effect | profoundly anti-angiogenic; also recorded: dose dependently and potently inhibited | dose-dependently inhibits
